What was measured:
[1] = test system: human primary fibroblasts (PHF); test: Marker expression (immunohistochemistry) in human primary fibroblasts with SP alone or with NK1 antagonists; format: cell-based; settings: SP 1 μM + antagonist 1 μM; 48 h;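 note: primary human dermal fibroblasts, immunostained with rabbit polyclonal antibodies against each marker, value is percentage of stained cells among all cells counted in 20 fields at 400× per section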
Method: These PHF were obtained and purified from samples obtained from the dermis of the skin of healthy volunteers as described in De Bari et al (De Bari et al. 2001). Briefly, small pieces of skin dermis were digested in a solution of hyaluronidase (Sigma-Aldrich, USA) at a concentration of 1 mg/ml for 15 minutes at 37° C. and then treated with 6 mg/ml collagenase type IV (Invitrogen) for 2 hours at 37° C. Then, the cells were washed, resuspended in DMEM culture medium with high glucose (Dulbecco's Modified Eagle's Medium, Invitrogen) supplemented with 1% antibiotic-antimycotic (Invitrogen) and 1% pyruvate Sodium (Invitrogen), and seeded in culture dishes at a concentration of 10,000 cells per square centimeter. When the cells reached confluence, adherent cells were detached using 0.5% sterile trypsin (Invitrogen) and used between passages 3 and 9. For tests shown below, the PHF were plated in 24-well plates at a concentration of 25,000 cells per well.
After 48 hours of culture, cells were harvested and paraffin cell-blocks for immunohistochemical analysis were constructed, as previously explained in Example 1.
In immunohistochemical assays the expression of the following markers were studied: TGFα (SAB4502953), TGF1 (SAB4502954), TGFβ2 (SAB4502956), TGFβ3 (SAB4502957), SPARC (HPA002989), MMP-3 (HPA007875) MMP-7 (SAB4501894), MMP-9 (SAB4501896), MMP-11 (SAB4501898), MMP-13 (SAB4501900) and MMP-14 (SAB4501901) using specific antibodies against them. All antibodies used were rabbit polyclonal antibodies obtained from Sigma-Aldrich and were used at a concentration of 1/1000. All experiments were carried out sixfold.
On each of the six sections cell counts were performed in 20 high power fields (400×) through an Olympus microscope (model CX31) to assess the immunostaining. On each of the fields total cell number and number of cells displaying immunostaining were counted, being then the percentage of cells displaying said immunostaining.

[2] = test system: fibroblasts (PHF) co-cultured with tumor cells of human gastric adenocarcinoma (23132/87); test: Marker expression (IHC) in PHF co-cultured with 23132/87 tumor cells; format: cell-based; settings: co-culture with 23132/87; SP 1 μM + antagonist 1 μM; 48 h;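 note: cultures grown in fresh plasma from a healthy human donor, values give the percentage of PHF fibroblasts positive for the marker, each experiment run in six replicates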
Method: (§1) All cultures were maintained 48 hours, following which the same cells were included in paraffin blocks for subsequent analysis of the expression of different markers by immunohistochemistry (see Example 1). The primary antibodies used to perform immunohistochemical assays and their concentration are detailed in Example 2. All experiments were carried out sixfold. Analyzed markers in fibroblast cells (stromal cells) were: TGF-α, TGF-β1, TGF-β2, TGF-β3, SPARC, MMP-3, MMP-7, MMP-9, MMP-11, MMP-13 and MMP-14.

[3] = test system: fibroblasts (PHF) co-cultured with tumor cells of human breast carcinoma (MCF-7); test: Marker expression (IHC) in PHF co-cultured with MCF-7 tumor cells; format: cell-based; settings: co-culture with MCF-7; SP 1 μM + antagonist 1 μM; 48 h;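 note: value is the percentage of fibroblasts positive for each marker, with fibroblasts cultured alone as reference, grown in fresh plasma from a healthy donor, six replicates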
Method: (§2) All cultures were maintained 48 hours, following which the same cells were included in paraffin blocks for subsequent analysis of the expression of different markers by immunohistochemistry (see Example 1). […] All experiments were carried out sixfold. Analyzed markers in fibroblast cells (stromal cells) were: TGF-α, TGF-β1, TGF-β2, TGF-β3, SPARC, MMP-3, MMP-7, MMP-9, MMP-11, MMP-13 and MMP-14.

[4] = test system: fibroblasts (PHF) co-cultured with tumor cells, ovarian carcinoma (EFO-27); test: Marker expression (IHC) in PHF co-cultured with EFO-27 tumor cells; format: cell-based, human; settings: co-culture with EFO-27; SP 1 μM + antagonist 1 μM; 48 h;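 note: values are the percentage of PHF fibroblasts positive for each marker, cultured in fresh plasma from a healthy human donor, each experiment run in six replicates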
Method: as §2

[5] = test system: fibroblasts (PHF) co-cultured with tumor cells of human cervix carcinoma (KB); test: Marker expression (IHC) in PHF co-cultured with KB tumor cells; format: cell-based; settings: co-culture with KB; SP 1 μM + antagonist 1 μM; 48 h;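 note: percentage of PHF fibroblasts showing expression of each marker, cultured in fresh blood plasma from a healthy human donor, six replicates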
Method: as §2

[6] = test system: fibroblasts (PHF) co-cultivated with tumor cell lymphoblastic leukemia B (SDI); test: Marker expression (IHC) in PHF co-cultured with SDI tumor cells; format: cell-based, human; settings: PHF co-cultivated with SDI + SP + NK1 antagonist
Method: as §2

[7] = test system: fibroblasts (PHF) co-cultured with tumor cells of human Burkitt lymphoma (CA-46); test: Marker expression (IHC) in PHF co-cultured with CA-46 tumor cells; format: cell-based; settings: PHF co-cultured with CA-46 + SP + NK1 antagonist;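 note: percentage of PHF fibroblasts positive for each marker, cultures grown in fresh human plasma from a healthy donor, six replicates, compared with fibroblasts cultured alone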
Method: as §1

[8] = test system: fibroblasts of tumors produced by human glioma tumor line (GAMG); test: Marker expression (IHC) in fibroblasts of tumor or peritumoral area, mouse model, GAMG; format: in vivo; settings: GAMG tumors in mice, 30 mg/kg/day oral, 7 days
Method: In vitro tests conducted in Example 5 are now carried out in an experimental model in mice in vivo. […] Subsequently, the expression in fibroblasts tumoral and peritumoral area of molecular markers associated with progression and maintenance of tumors: TGF-α, TGF-β1, TGF-β2, TGF-β3, MMP-7, MMP-11, MMP-14 were analyzed by immunohistochemistry.
Were injected with 2×10^7 cells tumors (corresponding, in each case to each of the tumor types as specified in Table 9) in 200 of PBS subcutaneously μl. […] Mice were randomized into two groups when the tumors reached a volume of 75 mm^3 One group was treated with non-peptide receptor antagonists NK1 and the other with placebo 200μ1. […] Tumors and samples of non-neoplastic stromal areas remote from the tumor were halved, formalin fixed (4%) and then were included in paraffin blocks for analysis by immunohistochemistry.
The expression on fibroblast cells obtained in the animal model was analyzed by immunohistochemistry, of the above markers: TGF-α, TGF-β1, TGF-β2, TGF-β3, MMP-7, MMP-1 1, MMP-14MP-14. Tables 32 to 35 depict the type of label used and the average percentage of fibroblasts present in non-tumor areas, tumor and peritumoral (±SD) which were expressing the marker shown in each of the tumor types developed from of the different cell lines used. This process was realized in mice treated with non-peptide antagonists of NK1 receptor and in untreated animals (control).

[9] = test system: macrophages in co-culture with cells isolated from primary human tumors; test: Marker expression (IHC) in macrophages co-cultured with primary human tumor cells (colon, breast, ovarian, lung carcinoma, melanoma); format: cell-based; settings: SP 1 μM + antagonist 1 μM;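 note: macrophages came from pleural or peritoneal washings of the patient who also supplied the tumor cells, and both were co-cultured on fresh blood plasma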
Method: To check that the interaction of tumor cells obtained directly from primary human immune cell/inflammatory (macrophages) cells, obtained from the patient stimulate secretion of substances by these macrophages recognized as important in survival of both cell types and in the progression of tumor cells, co-cultures were performed on fresh blood plasma, immune cell/inflammatory (macrophages) with tumor cells derived from primary tumors. All obtained from the same patient, to build an experimental model similar to human physiology.
Macrophages were obtained from washing or pleural or peritoneal from the same patient from which the primary tumor cells were obtained in each case.

[10] = co-culture with cells isolated from breast carcinoma
[11] = co-culture with cells isolated from colon carcinoma
[12] = co-culture with cells isolated from lung carcinoma
[13] = co-culture with cells isolated from melanoma
[14] = co-culture with cells isolated from ovarian carcinoma

CC(=O)N1CCN([C@H]2CCN(C(=O)N(C)[C@H](C)c3cc(C(F)(F)F)cc(C(F)(F)F)c3)[C@@H](c3ccc(F)cc3C)C2)CC1 [Casopitant]
0%: PHF cells expressing MMP-3 [1] | PHF cells expressing MMP-7 [1] | PHF cells expressing MMP-9 [1] | PHF cells expressing MMP-11 [1] | PHF cells expressing MMP-13 [1] | PHF cells expressing MMP-14 [1] | PHF cells expressing SPARC [1] | PHF cells expressing TGFα [1] | PHF cells expressing TGFβ 1 [1] | PHF cells expressing TGFβ 2 [1] | PHF cells expressing TGFβ 3 [1] | PHF cells expressing MMP-3 [2] | PHF cells expressing MMP-7 [2] | PHF cells expressing MMP-9 [2] | PHF cells expressing MMP-11 [2] | PHF cells expressing MMP-13 [2] | PHF cells expressing MMP-14 [2] | PHF cells expressing SPARC [2] | PHF cells expressing TGF-α [2] | PHF cells expressing TGF-β1 [2] | PHF cells expressing TGF-β2 [2] | PHF cells expressing TGF-β3 [2] | PHF cells expressing MMP-3 [3] | PHF cells expressing MMP-7 [3] | PHF cells expressing MMP-9 [3] | PHF cells expressing MMP-11 [3] | PHF cells expressing MMP-13 [3] | PHF cells expressing MMP-14 [3] | PHF cells expressing SPARC [3] | PHF cells expressing TGF-α [3] | PHF cells expressing TGF-β1 [3] | PHF cells expressing TGF-β2 [3] | PHF cells expressing TGF-β3 [3] | PHF cells expressing MMP-3 [4] | PHF cells expressing MMP-7 [4] | PHF cells expressing MMP-9 [4] | PHF cells expressing MMP-11 [4] | PHF cells expressing MMP-13 [4] | PHF cells expressing MMP-14 [4] | PHF cells expressing SPARC [4] | PHF cells expressing TGF-α [4] | PHF cells expressing TGF-β1 [4] | PHF cells expressing TGF-β2 [4] | PHF cells expressing TGF-β3 [4] | PHF cells expressing MMP-3 [5] | PHF cells expressing MMP-7 [5] | PHF cells expressing MMP-9 [5] | PHF cells expressing MMP-11 [5] | PHF cells expressing MMP-13 [5] | PHF cells expressing MMP-14 [5] | PHF cells expressing SPARC [5] | PHF cells expressing TGF-α [5] | PHF cells expressing TGF-β1 [5] | PHF cells expressing TGF-β2 [5] | PHF cells expressing TGF-β3 [5] | cells expressing MMP-3 [6] | cells expressing MMP-7 [6] | cells expressing MMP-9 [6] | cells expressing MMP-11 [6] | cells expressing MMP-13 [6] | cells expressing MMP-14 [6] | cells expressing SPARC [6] | cells expressing TGF-α [6] | cells expressing TGF-β1 [6] | cells expressing TGF-β2 [6] | cells expressing TGF-β3 [6] | cells expressing MMP-3 [7] | cells expressing MMP-7 [7] | cells expressing MMP-9 [7] | cells expressing MMP-11 [7] | cells expressing MMP-13 [7] | cells expressing MMP-14 [7] | cells expressing SPARC [7] | cells expressing TGF-α [7] | cells expressing TGF-β1 [7] | cells expressing TGF-β2 [7] | cells expressing TGF-β3 [7] | fibroblasts expressing MMP-7 [8] | fibroblasts expressing MMP-11 [8] | fibroblasts expressing MMP-14 [8] | fibroblasts expressing TGF-α [8] | fibroblasts expressing TGF-β 1 [8] | fibroblasts expressing TGF-β 2 [8] | fibroblasts expressing TGF-β 3 [8] | Percentage of macrophages which expressed EGF [9, 10] | Percentage of macrophages which expressed MMP-9 [9, 10] | Percentage of macrophages which expressed VEGF [9, 10] | Percentage of macrophages which expressed EGF [9, 11] | Percentage of macrophages which expressed MMP-9 [9, 11] | Percentage of macrophages which expressed VEGF [9, 11] | Percentage of macrophages which expressed EGF [9, 12] | Percentage of macrophages which expressed MMP-9 [9, 12] | Percentage of macrophages which expressed VEGF [9, 12] | Percentage of macrophages which expressed EGF [9, 13] | Percentage of macrophages which expressed MMP-9 [9, 13] | Percentage of macrophages which expressed VEGF [9, 13] | Percentage of macrophages which expressed EGF [9, 14] | Percentage of macrophages which expressed MMP-9 [9, 14] | Percentage of macrophages which expressed VEGF [9, 14]

— US20180071317A1, “USE OF AGENTS THAT ALTER THE PERITUMORAL ENVIRONMENT FOR THE TREATMENT OF CANCER” (SERVICIO ANDALUZ DE SALUD, priority 2011, published 2018)
